In patent US10532979B2, “Phenyldifluoromethyl-substituted prolinamide compound” (ASTELLAS PHARMA INC., priority 2017, dated 2020):
Where a name gives a salt, the structure may show the parent alone.

Legend:
[1] = tested on: MHC class II expression in B cells of peripheral blood; assay: Ex vivo MHC class II expression inhibitory effect using mouse peripheral blood after oral administration; assay type: in vivo; details: male C57BL/6J mice, 0.3 mg/kg oral, peripheral blood after 6 hours, LPS 100 μg/mL 15 hours
Procedure: Test Example 3: Evaluation of Ex Vivo MHC Class II Expression Inhibitory Effect Using Mouse Peripheral Blood
The expression inhibitory effect of MHC class II molecules was evaluated in an ex vivo system.
The test compound was orally administered to male C57BL/6J mice (Charles River Laboratories Japan, Inc.), and an inhibition effect with respect to an increase in the expression of MHC class II in B cells of peripheral blood after oral administration was examined. That is, 10 mL/kg of the test compound dissolved in a vehicle [30% propylene glycol solvent {propylene glycol:hydrogenated castor oil (HCO40): Tween 80=4:2:1}/HCl (2 equivalents to the test compound)/water] was orally administered to male C57BL/6J mice (dose: 0.3 mg/kg, 4 subjects per group), and peripheral blood was recovered after 6 hours. To 90 μL of the peripheral blood, 10 μL of PBS or 10 μL (final concentration 100 μg/mL) of LPS (Sigma L4005) was added, and the culturing was carried out at 37° C. under 5% CO2 for 15 hours. […] After washing, using the flow cytometry system (FACSCanto II, BD BIOSCIENCES), an expression level of MHC class II on a surface of B220 positive B cells was measured with an average fluorescence intensity of FITC (hereinafter referred to as MFI) as an index. […]

human cathepsin S = biological target: T1, human cathepsin S (Homo sapiens, UniProt P25774); assay: Measurement of in vitro human cathepsin S inhibitory activity; assay type: biochemical; details: substrate VVR-AMC 40 μM, pH 4.5, 37° C.; read-out: Dat1: IC50 value of human cathepsin S inhibitory activity
T1 construct: purchased R&D 1183-CY-010
T1 sequence (P25774 115-331): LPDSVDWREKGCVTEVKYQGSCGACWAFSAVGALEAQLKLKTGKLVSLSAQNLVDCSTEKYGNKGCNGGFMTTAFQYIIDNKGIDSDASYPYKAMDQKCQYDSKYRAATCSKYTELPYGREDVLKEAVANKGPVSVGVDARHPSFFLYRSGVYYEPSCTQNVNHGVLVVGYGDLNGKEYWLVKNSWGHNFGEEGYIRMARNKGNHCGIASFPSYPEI
Procedure: Test Example 1: Measurement of In Vitro Human Cathepsin S Inhibitory Activity
To a 96-well plate, 5 μL of human cathepsin S enzyme (R&D 1183-CY-010) was added so as to be 20 ng/well. Next, with assay buffer (50 mM sodium acetate, 250 mM sodium chloride, and 5 mM dithiothreitol (DTT), pH=4.5), a test compound (10 mM DMSO solution) was diluted 10-fold dilution series with 5 steps so that a final concentration becomes 0.1 nM to 1 μM or diluted 3-fold dilution series with 7 steps so that a final concentration becomes 0.01 nM to 10 nM, and 10 μL thereof was added to the well (final DMSO concentration was 0.1%), followed by addition of 25 μL of synthetic substrate VVR-AMC (Peptide Institute 3211-V) so that a final concentration becomes 40 μM, and thereby an enzymatic reaction was initiated. The fluorescence intensity (excitation wavelength: 380 nm, fluorescence wavelength: 460 nm) was measured at 37° C. for 5 to 10 minutes from the start of the reaction using a spectrofluorophotometer (SPECTRAMAX GEMINI, Molecular Devices), and a reaction rate when linearity was recognized (5 minutes) was obtained for each concentration of the test compound. An inhibition rate at each concentration was defined by suppressing a reaction rate at the time of non-addition of an enzyme without adding the test compound and a reaction rate at the time of addition of an enzyme without adding the test compound by 100% inhibition and 0% inhibition, respectively, and therefore an IC50 value was calculated by a sigmoid Emax nonlinear regression method. In the table, Ex represents Example compound No., and Dat1 represents the IC50 value (nM) of human cathepsin S inhibitory activity.

[2] = tested on: MHC class II expression in B cells; assay: Inhibitory effect on in vitro MHC class II expression using mouse splenocytes (LPS-stimulated, B220 positive B cells); assay type: cell-based; details: B-cell, C57BL/6J mouse splenocytes, LPS 2 μg/mL, 48 hours, YAe antibody, read-out: Dat2: IC50 value, inhibition of MHC class II expression
Description: Test Example 2: Evaluation of Inhibitory Effect on In Vitro MHC Class II Expression Using Mouse Splenocytes (Cell Evaluation System)
In antigen-presenting cells, inhibition of cathepsin S suppresses expression of MHC class II molecules. As a result, suppression of antigen presentation to CD4-positive T cells causes a deterioration in the immune response to foreign antigens. In regard to an increase in MHC class II expression in B cells, the inhibitory effect of the compound of the formula (I) was examined.
Splenocytes collected from male C57BL/6J mice (Charles River Laboratories Japan, Inc.) were seeded in a 96-well plate by 1×10^5 cells/well. With RPMI 1640 medium (containing 10% fetal bovine serum (FCS), 5×10^−5 M 2-mercaptoethanol, 50 IU/mL penicillin, and 50 μg/mL streptomycin), 10 mM DMSO solution of the test compound was diluted 5-fold dilution series with 9 steps so that a final concentration becomes […] to 10 μM, or diluted 5-fold dilution series with 12 steps so that a final concentration becomes 0.205 pM to 10 μM (final DMSO concentration is 0.1%), and added. At the same time, LPS (Sigma L4005) was added to the well so that the final concentration becomes 2 μg/mL, and the cells were cultured at 37° C. under 5% CO2 for 48 hours. After culturing, the cells were stained with biotin-labeled YAe antibody (EBIOSCIENCE 13-5741-85) at 4° C. for 20 minutes, and washed. The cells were further stained with FITC fluorochrome labeled anti-mouse B220 antibody (BD BIOSCIENCES 553088) and PE fluorochrome labeled streptavidin (BD BIOSCIENCES 554061) for 20 minutes at 4° C. Therefore, an expression level (fluorescence intensity of YAe-biotin/streptavidin-PE) of MHC class II bound to the Ea peptide in B220 positive B cells was measured by using a flow cytometry system (Guava EasyCyte Plus System, Millipore). An inhibition rate at each concentration was defined by suppressing a value at the time of non-stimulation of LPS without addition of the test compound and a value at the time of stimulation of LPS without addition of the test compound by 100% inhibition and 0% inhibition, respectively, and therefore an IC50 value was calculated by the sigmoid Emax nonlinear regression method. In the table, Ex represents Example compound No., and Dat2 represents the IC50 value (nM).

[3] = tested on: NZB/W F1 mice (SLE-like disease); assay: Inhibitory effect on SLE-like disease onset in spontaneous onset model using NZB/W F1 mice; assay type: in vivo, mouse; details: NZB/W F1 female mice
Description: Test Example 4: Evaluation of Inhibitory Effect on SLE-Like Disease Onset in Spontaneous Onset Model Using NZB/W F1 Mice
NZB/W F1 mice (Japan SLC, Inc.) is used as a model of SLE spontaneously developing a disease condition close to humans (“JAMA”, 1966, Vol. 195, p. 145; “Advances in Immunology”, 1985, Vol. 37, p. 269-390; “Journal of Biomedicine and Biotechnology”, 2011, Vol. 2011, 271694).
NZB/W F1 female mice were divided into groups according to urine protein values (creatinine corrected value), anti-double stranded DNA (dsDNA) antibody value (IgG) in plasma, an expression level of MHC class II in B cells of peripheral blood, and body weight at age of 19 weeks. At this time, individuals with urine protein values (creatinine corrected value) of 3 or more were excluded. From age of 20 weeks, the test compound was orally administered twice a day, and then urine collection and blood collection were performed over time. The change in urine protein value and anti-dsDNA antibody value over time were evaluated.
In the above test, anti-dsDNA IgG antibody value in plasma generated in association with SLE-like disease was measured by ELISA method (ALPHA DIAGNOSTIC 5120). In geometric mean values of the antibody value at age of 28 weeks and age of 32 weeks of each individual, a geometric mean value of 10 vehicle-administered subjects was 216662 U/mL, whereas a geometric mean value of 10 subjects administered with 1 mg/kg b.i.d. of the compound of Example 2 was 26827 U/mL, which is a low value having a significant difference (P value=0.0009, Dunnett's multiple comparison). In addition, urine protein values (creatinine corrected value) at age of 40 weeks were measured. A geometric mean value of the 10 vehicle-administered subjects was 13.0, whereas a geometric mean value of the 10 subjects administered with 1 mg/kg b.i.d. of the compound of Example 2 was 0.7, which is a low value having a significant difference (P value=0.0005, Dunnett's multiple comparison).

Row | SMILES | melting point | IC50 (human cathepsin S) | IC50 [2] | inhibition rate of ΔMFI (increase in expression of MHC class II on B220 positive B cells) [1] | effect on SLE-like disease onset ([3]; 1 mg/kg b.i.d. oral) | anti-dsDNA IgG antibody value in plasma, geometric mean value ([3]; 1 mg/kg b.i.d. oral from age of 20 weeks, age of 28 weeks and 32 weeks, 10 subjects, vehicle 216662 U/mL, P value=0.0009) | urine protein value (creatinine corrected value), geometric mean value ([3]; 1 mg/kg b.i.d. oral, age of 40 weeks, 10 subjects, vehicle 13.0, P value=0.0005)
1 | CN1CCN(Cc2ccc(C(F)(F)[C@@H]3C[C@@H](C(=O)NC4(C#N)CC4)N(C(=O)C4(C)CC4)C3)c(C(F)(F)F)c2)CC1 (as salt: succinate) [Example 18, (4R)—N-(1-cyanocyclopropyl)-4-(difluoro{4-[(4-methylpiperazin-1-yl)methyl]-2-(trifluoromethyl)phenyl}methyl)-1-[(1-methylcyclopropyl)carbonyl]-L-prolinamide] | 134.3 °C |  |  |  |  |  | 
2 | CN1CCN(Cc2ccc(C(F)(F)[C@@H]3C[C@@H](C(=O)NC4(C#N)CC4)N(C(=O)C4(C(F)(F)F)CC4)C3)c(C(F)(F)F)c2)CC1 [Example 4, (4R)—N-(1-cyanocyclopropyl)-4-(difluoro{4-[(4-methylpiperazin-1-yl)methyl]-2-(trifluoromethyl)phenyl}methyl)-1-{[1-(trifluoromethyl)cyclopropyl]carbonyl}-L-prolinamide] |  | 1000 pM | 620 pM |  |  |  | 
3 | CCN1CCN(Cc2ccc(C(F)(F)[C@@H]3C[C@@H](C(=O)NC4(C#N)CC4)N(C(=O)C4(C(F)(F)F)CC4)C3)c(C(F)(F)F)c2)CC1 [Example 13] |  | 1000 pM | 370 pM |  |  |  | 

The remaining compounds from weak to strong by IC50 (human cathepsin S), led by results:

Row | melting point | IC50 (human cathepsin S) | IC50 [2] | SMILES | inhibition rate of ΔMFI (increase in expression of MHC class II on B220 positive B cells) [1] | effect on SLE-like disease onset ([3]; 1 mg/kg b.i.d. oral) | anti-dsDNA IgG antibody value in plasma, geometric mean value ([3]; 1 mg/kg b.i.d. oral from age of 20 weeks, age of 28 weeks and 32 weeks, 10 subjects, vehicle 216662 U/mL, P value=0.0009) | urine protein value (creatinine corrected value), geometric mean value ([3]; 1 mg/kg b.i.d. oral, age of 40 weeks, 10 subjects, vehicle 13.0, P value=0.0005)
4 |  | 880 pM | 590 pM | CN1CCN(Cc2ccc(C(F)(F)C3C[C@@H](C(=O)NC4(C#N)CC4)N(C(=O)C4(C)CC4)C3)c(C(F)(F)F)c2)CC1 (mixture of isomers) [Example 8, N-(1-cyanocyclopropyl)-4-(difluoro{4-[(4-methylpiperazin-1-yl)methyl]-2-(trifluoromethyl)phenyl}methyl)-1-[(1-methylcyclopropyl)carbonyl]-L-prolinamide dihydrochloride] | 41% |  |  | 
5 |  | 810 pM | 650 pM | CN1CCN(Cc2ccc(C(F)(F)[C@@H]3C[C@@H](C(=O)NC4(C#N)CC4)N(C(=O)C4(C)CC4)C3)c(C(F)(F)F)c2)CC1 [Example 2, (4R)—N-(1-cyanocyclopropyl)-4-(difluoro{4-[(4-methylpiperazin-1-yl)methyl]-2-(trifluoromethyl)phenyl}methyl)-1-[(1-methylcyclopropyl)carbonyl]-L-prolinamide dihydrochloride] |  | has the effect of suppressing the SLE-like disease onset | 26827 U/mL | 0.7
6 |  | 430 pM | 600 pM | CCN1CCN(Cc2ccc(C(F)(F)[C@@H]3C[C@@H](C(=O)NC4(C#N)CC4)N(C(=O)C4(C)CC4)C3)c(C(F)(F)F)c2)CC1 [Example 14] |  |  |  | 
